Test results: patent US20130338106A1, “COMPOUNDS INHIBITING LEUCINE-RICH REPEAT KINASE ENZYME ACTIVITY” (priority 2011, published 2013)
Where two headings read alike, the source gives them in different places.

How the values were obtained:
Assay type in all cases: biochemical
MINK = molecular target: T1, MINK (Homo sapiens, UniProt Q8N4C8); experiment: ProfilerPro Kinase Selectivity, MINK; details: tested at 10 uM, read-out: percent inhibition of the kinase activity
T1 construct: purchased Caliper LifeSciences
Procedure: (§1) Kinome selectivity profiling was performed using two example compounds according to the manufacturer's instructions using Caliper LifeSciences' ProfilerPro Kinase Selectivity Assay Kits. Compounds prepared in Examples 1 and 7 were tested at 10 uM and data were recorded using the Caliper LabChip® EZ Reader™. Each compounds' percent inhibition of the kinase activity measured in this manner is reported in the following lists.

CAMK2B = molecular target: T2, CAMK2B (Homo sapiens, UniProt Q13554); experiment: ProfilerPro Kinase Selectivity, CAMK2B; details: tested at 10 uM, read-out: percent inhibition of the kinase activity
T2 construct: purchased Caliper LifeSciences
Procedure: as §1

CK1D = molecular target: T3, CK1D (Homo sapiens, UniProt P48730); experiment: ProfilerPro Kinase Selectivity, CK1D; details: tested at 10 uM, read-out: percent inhibition of the kinase activity
T3 construct: purchased Caliper LifeSciences
Procedure: as §1

HCK = molecular target: T4, HCK (Homo sapiens, UniProt P08631); experiment: ProfilerPro Kinase Selectivity, HCK; details: tested at 10 uM, read-out: percent inhibition of the kinase activity
T4 construct: purchased Caliper LifeSciences
Procedure: as §1

PRKCD = molecular target: T5, PRKCD (Homo sapiens, UniProt Q05655); experiment: ProfilerPro Kinase Selectivity, PRKCD; details: tested at 10 uM, read-out: percent inhibition of the kinase activity
T5 construct: purchased Caliper LifeSciences
Procedure: as §1

YES = molecular target: T6, YES (Homo sapiens, UniProt P07947); experiment: ProfilerPro Kinase Selectivity, YES; details: tested at 10 uM, read-out: percent inhibition of the kinase activity
T6 construct: purchased Caliper LifeSciences
Procedure: as §1

MST1R = molecular target: T7, MST1R (Homo sapiens, UniProt Q04912); experiment: ProfilerPro Kinase Selectivity, MST1R; details: tested at 10 uM, read-out: percent inhibition of the kinase activity
T7 construct: purchased Caliper LifeSciences
Procedure: as §1

EPHB2 = molecular target: T8, EPHB2 (Homo sapiens, UniProt P29323); experiment: ProfilerPro Kinase Selectivity, EPHB2; details: tested at 10 uM, read-out: percent inhibition of the kinase activity
T8 construct: purchased Caliper LifeSciences
Procedure: as §1

PRKCA = molecular target: T9, PRKCA (Homo sapiens, UniProt P17252); experiment: ProfilerPro Kinase Selectivity, PRKCA; details: tested at 10 uM, read-out: percent inhibition of the kinase activity
T9 construct: purchased Caliper LifeSciences
Procedure: as §1

LRRK2 = LRRK2 (Homo sapiens, UniProt Q5S007); experiment: ProfilerPro Kinase Selectivity, LRRK2; details: read-out: percent inhibition of the kinase activity
Procedure: as §1, with “Reader™.” for “Reader™. Each compounds' percent inhibition of the kinase activity measured in this manner is reported in the following lists.”

EPHA1 = molecular target: T10, EPHA1 (Homo sapiens, UniProt P21709); experiment: ProfilerPro Kinase Selectivity, EPHA1; details: tested at 10 uM, read-out: percent inhibition of the kinase activity
T10 construct: purchased Caliper LifeSciences
Procedure: as §1

ERK1 = molecular target: T11, ERK1 (Homo sapiens, UniProt P27361); experiment: ProfilerPro Kinase Selectivity, ERK1; details: tested at 10 uM, read-out: percent inhibition of the kinase activity
T11 construct: purchased Caliper LifeSciences
Procedure: as §1

HER4 = molecular target: T12, HER4 (Homo sapiens, UniProt Q15303); experiment: ProfilerPro Kinase Selectivity, HER4; details: tested at 10 uM, read-out: percent inhibition of the kinase activity
T12 construct: purchased Caliper LifeSciences
Procedure: as §1

EPHB1 = molecular target: T13, EPHB1 (Homo sapiens, UniProt P54762); experiment: ProfilerPro Kinase Selectivity, EPHB1; details: tested at 10 uM, read-out: percent inhibition of the kinase activity
T13 construct: purchased Caliper LifeSciences
Procedure: as §1

LCK = molecular target: T14, LCK (Homo sapiens, UniProt P06239); experiment: ProfilerPro Kinase Selectivity, LCK; details: tested at 10 uM, read-out: percent inhibition of the kinase activity
T14 construct: purchased Caliper LifeSciences
Procedure: as §1

CK1G1 = molecular target: T15, CK1G1 (Homo sapiens, UniProt Q9HCP0); experiment: ProfilerPro Kinase Selectivity, CK1G1; details: tested at 10 uM, read-out: percent inhibition of the kinase activity
T15 construct: purchased Caliper LifeSciences
Procedure: as §1

PRKCZ = molecular target: T16, PRKCZ (Homo sapiens, UniProt Q05513); experiment: ProfilerPro Kinase Selectivity, PRKCZ; details: tested at 10 uM, read-out: percent inhibition of the kinase activity
T16 construct: purchased Caliper LifeSciences
Procedure: as §1

SRC = molecular target: T17, SRC (Homo sapiens, UniProt P12931); experiment: ProfilerPro Kinase Selectivity, SRC; details: tested at 10 uM, read-out: percent inhibition of the kinase activity
T17 construct: purchased Caliper LifeSciences
Procedure: as §1

GSK3A = molecular target: T18, GSK3A (Homo sapiens, UniProt P49840); experiment: ProfilerPro Kinase Selectivity, GSK3A; details: tested at 10 uM, read-out: percent inhibition of the kinase activity
T18 construct: purchased Caliper LifeSciences
Procedure: as §1

AMPKA2/B1/G1 = molecular target: T19, AMPKA2/B1/G1 (Homo sapiens, UniProt P54646); experiment: ProfilerPro Kinase Selectivity, AMPKA2/B1/G1; details: tested at 10 uM, read-out: percent inhibition of the kinase activity
T19 construct: purchased Caliper LifeSciences
Procedure: as §1

EGFR = molecular target: T20, EGFR (Homo sapiens, UniProt P00533); experiment: ProfilerPro Kinase Selectivity, EGFR; details: tested at 10 uM, read-out: percent inhibition of the kinase activity
T20 construct: purchased Caliper LifeSciences
Procedure: as §1

MAPKAPK2 = molecular target: T21, MAPKAPK2 (Homo sapiens, UniProt P49137); experiment: ProfilerPro Kinase Selectivity, MAPKAPK2; details: tested at 10 uM, read-out: percent inhibition of the kinase activity
T21 construct: purchased Caliper LifeSciences
Procedure: as §1

CASEIN K1G2 = molecular target: T22, CASEIN K1G2 (Homo sapiens, UniProt P78368); experiment: ProfilerPro Kinase Selectivity, CASEIN K1G2; details: tested at 10 uM, read-out: percent inhibition of the kinase activity
T22 construct: purchased Caliper LifeSciences
Procedure: as §1

DYRK1B = molecular target: T23, DYRK1B (Homo sapiens, UniProt Q9Y463); experiment: ProfilerPro Kinase Selectivity, DYRK1B; details: tested at 10 uM, read-out: percent inhibition of the kinase activity
T23 construct: purchased Caliper LifeSciences
Procedure: as §1

PAK4 = molecular target: T24, PAK4 (Homo sapiens, UniProt O96013); experiment: ProfilerPro Kinase Selectivity, PAK4; details: tested at 10 uM, read-out: percent inhibition of the kinase activity
T24 construct: purchased Caliper LifeSciences
Procedure: as §1

PKD2 = molecular target: T25, PKD2 (Homo sapiens, UniProt Q9BZL6); experiment: ProfilerPro Kinase Selectivity, PKD2; details: tested at 10 uM, read-out: percent inhibition of the kinase activity
T25 construct: purchased Caliper LifeSciences
Procedure: as §1

TYRO3 = molecular target: T26, TYRO3 (Homo sapiens, UniProt Q06418); experiment: ProfilerPro Kinase Selectivity, TYRO3; details: tested at 10 uM, read-out: percent inhibition of the kinase activity
T26 construct: purchased Caliper LifeSciences
Procedure: as §1

CDK1/CYCB1 = molecular target: T27, CDK1/CYCB1 (Homo sapiens, UniProt P06493); experiment: ProfilerPro Kinase Selectivity, CDK1/CYCB1; details: tested at 10 uM, read-out: percent inhibition of the kinase activity
T27 construct: purchased Caliper LifeSciences
Procedure: as §1

ABL1 Y253F = molecular target: T28, ABL1 Y253F (Homo sapiens, UniProt P00519, Y253F); experiment: ProfilerPro Kinase Selectivity, ABL1 Y253F; details: tested at 10 uM, read-out: percent inhibition of the kinase activity
T28 construct: purchased Caliper LifeSciences
Procedure: as §1

RSK3 = molecular target: T29, RSK3 (Homo sapiens, UniProt Q15349); experiment: ProfilerPro Kinase Selectivity, RSK3; details: tested at 10 uM, read-out: percent inhibition of the kinase activity
T29 construct: purchased Caliper LifeSciences
Procedure: as §1

SGK = molecular target: T30, SGK (Homo sapiens, UniProt O00141); experiment: ProfilerPro Kinase Selectivity, SGK; details: tested at 10 uM, read-out: percent inhibition of the kinase activity
T30 construct: purchased Caliper LifeSciences
Procedure: as §1

EPHB4 = molecular target: T31, EPHB4 (Homo sapiens, UniProt P54760); experiment: ProfilerPro Kinase Selectivity, EPHB4; details: tested at 10 uM, read-out: percent inhibition of the kinase activity
T31 construct: purchased Caliper LifeSciences
Procedure: as §1

PRKCH = molecular target: T32, PRKCH (Homo sapiens, UniProt P24723); experiment: ProfilerPro Kinase Selectivity, PRKCH; details: tested at 10 uM, read-out: percent inhibition of the kinase activity
T32 construct: purchased Caliper LifeSciences
Procedure: as §1

SYK = molecular target: T33, SYK (Homo sapiens, UniProt P43405); experiment: ProfilerPro Kinase Selectivity, SYK; details: tested at 10 uM, read-out: percent inhibition of the kinase activity
T33 construct: purchased Caliper LifeSciences
Procedure: as §1

MST2 = molecular target: T34, MST2 (Homo sapiens, UniProt Q13188); experiment: ProfilerPro Kinase Selectivity, MST2; details: tested at 10 uM, read-out: percent inhibition of the kinase activity
T34 construct: purchased Caliper LifeSciences
Procedure: as §1

PAK2 = molecular target: T35, PAK2 (Homo sapiens, UniProt Q13177); experiment: ProfilerPro Kinase Selectivity, PAK2; details: tested at 10 uM, read-out: percent inhibition of the kinase activity
T35 construct: purchased Caliper LifeSciences
Procedure: as §1

FGFR4 = molecular target: T36, FGFR4 (Homo sapiens, UniProt P22455); experiment: ProfilerPro Kinase Selectivity, FGFR4; details: tested at 10 uM, read-out: percent inhibition of the kinase activity
T36 construct: purchased Caliper LifeSciences
Procedure: as §1

T25 sequence (Q9BZL6 whole entry): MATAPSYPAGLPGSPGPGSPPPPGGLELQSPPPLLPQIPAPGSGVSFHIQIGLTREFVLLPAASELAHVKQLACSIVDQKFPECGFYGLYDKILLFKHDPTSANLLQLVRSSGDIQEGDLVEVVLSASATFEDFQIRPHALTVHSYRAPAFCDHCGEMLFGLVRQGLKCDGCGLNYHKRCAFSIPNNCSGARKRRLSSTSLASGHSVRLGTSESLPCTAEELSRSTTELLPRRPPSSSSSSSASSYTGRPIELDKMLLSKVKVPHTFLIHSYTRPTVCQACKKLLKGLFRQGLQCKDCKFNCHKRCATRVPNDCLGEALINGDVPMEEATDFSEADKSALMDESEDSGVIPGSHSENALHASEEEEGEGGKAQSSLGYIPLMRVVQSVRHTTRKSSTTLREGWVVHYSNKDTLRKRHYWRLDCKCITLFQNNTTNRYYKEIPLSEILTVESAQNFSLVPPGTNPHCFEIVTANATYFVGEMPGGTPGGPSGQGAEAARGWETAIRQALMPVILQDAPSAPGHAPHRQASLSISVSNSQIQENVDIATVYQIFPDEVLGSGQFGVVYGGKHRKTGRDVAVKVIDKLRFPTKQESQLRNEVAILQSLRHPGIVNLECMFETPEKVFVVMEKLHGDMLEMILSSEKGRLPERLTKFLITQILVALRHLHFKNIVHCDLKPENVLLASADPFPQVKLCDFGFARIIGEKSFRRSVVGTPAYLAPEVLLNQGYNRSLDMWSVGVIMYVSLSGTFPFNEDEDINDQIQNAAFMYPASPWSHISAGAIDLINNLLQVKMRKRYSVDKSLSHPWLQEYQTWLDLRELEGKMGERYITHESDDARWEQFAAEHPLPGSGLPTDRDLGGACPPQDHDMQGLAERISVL
T2 sequence (Q13554 whole entry, species assumed): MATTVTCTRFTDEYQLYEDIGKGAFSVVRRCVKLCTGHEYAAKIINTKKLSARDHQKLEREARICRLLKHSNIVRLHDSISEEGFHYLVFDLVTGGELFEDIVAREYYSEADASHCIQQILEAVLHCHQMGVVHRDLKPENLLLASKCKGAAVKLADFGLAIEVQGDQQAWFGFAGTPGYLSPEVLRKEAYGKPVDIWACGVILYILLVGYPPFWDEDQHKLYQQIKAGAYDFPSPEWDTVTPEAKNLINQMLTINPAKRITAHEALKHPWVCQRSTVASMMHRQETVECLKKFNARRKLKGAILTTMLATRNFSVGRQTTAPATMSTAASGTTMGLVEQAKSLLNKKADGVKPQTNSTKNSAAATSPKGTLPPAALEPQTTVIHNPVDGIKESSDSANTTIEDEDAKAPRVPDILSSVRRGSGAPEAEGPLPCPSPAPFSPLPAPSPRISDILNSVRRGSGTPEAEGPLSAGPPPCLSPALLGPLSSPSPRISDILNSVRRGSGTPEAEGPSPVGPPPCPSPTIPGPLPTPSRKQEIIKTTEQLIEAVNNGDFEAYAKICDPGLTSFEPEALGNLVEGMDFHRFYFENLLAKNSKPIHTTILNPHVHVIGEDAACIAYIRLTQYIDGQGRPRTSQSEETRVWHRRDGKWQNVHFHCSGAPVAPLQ
T31 sequence (P54760 16-987, species assumed): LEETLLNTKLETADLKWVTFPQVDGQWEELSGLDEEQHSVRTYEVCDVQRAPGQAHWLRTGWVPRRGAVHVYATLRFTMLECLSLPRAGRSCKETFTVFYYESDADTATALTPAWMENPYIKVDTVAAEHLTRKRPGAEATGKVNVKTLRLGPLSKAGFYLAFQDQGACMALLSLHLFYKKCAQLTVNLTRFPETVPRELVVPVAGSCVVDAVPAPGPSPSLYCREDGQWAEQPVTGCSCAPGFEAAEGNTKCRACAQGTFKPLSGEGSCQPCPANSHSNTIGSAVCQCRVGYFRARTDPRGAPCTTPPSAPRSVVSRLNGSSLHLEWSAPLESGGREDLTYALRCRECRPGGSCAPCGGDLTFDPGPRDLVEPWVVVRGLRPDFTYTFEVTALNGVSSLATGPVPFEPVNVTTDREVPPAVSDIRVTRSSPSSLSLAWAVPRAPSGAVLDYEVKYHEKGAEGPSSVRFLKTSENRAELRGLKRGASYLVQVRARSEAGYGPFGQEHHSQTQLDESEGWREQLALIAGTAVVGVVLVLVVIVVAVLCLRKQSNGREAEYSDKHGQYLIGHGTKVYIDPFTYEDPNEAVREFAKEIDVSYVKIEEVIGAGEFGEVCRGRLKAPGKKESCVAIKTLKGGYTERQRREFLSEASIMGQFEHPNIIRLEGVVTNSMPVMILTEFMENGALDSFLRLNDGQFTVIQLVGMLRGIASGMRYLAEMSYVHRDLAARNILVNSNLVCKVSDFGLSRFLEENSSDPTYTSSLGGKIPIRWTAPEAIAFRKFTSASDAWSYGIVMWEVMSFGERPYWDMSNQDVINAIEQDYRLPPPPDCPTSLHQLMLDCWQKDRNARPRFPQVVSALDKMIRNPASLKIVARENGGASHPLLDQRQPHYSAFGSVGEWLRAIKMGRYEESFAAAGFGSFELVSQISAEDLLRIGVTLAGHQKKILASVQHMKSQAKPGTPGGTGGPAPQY
T24 sequence (O96013 whole entry, species assumed): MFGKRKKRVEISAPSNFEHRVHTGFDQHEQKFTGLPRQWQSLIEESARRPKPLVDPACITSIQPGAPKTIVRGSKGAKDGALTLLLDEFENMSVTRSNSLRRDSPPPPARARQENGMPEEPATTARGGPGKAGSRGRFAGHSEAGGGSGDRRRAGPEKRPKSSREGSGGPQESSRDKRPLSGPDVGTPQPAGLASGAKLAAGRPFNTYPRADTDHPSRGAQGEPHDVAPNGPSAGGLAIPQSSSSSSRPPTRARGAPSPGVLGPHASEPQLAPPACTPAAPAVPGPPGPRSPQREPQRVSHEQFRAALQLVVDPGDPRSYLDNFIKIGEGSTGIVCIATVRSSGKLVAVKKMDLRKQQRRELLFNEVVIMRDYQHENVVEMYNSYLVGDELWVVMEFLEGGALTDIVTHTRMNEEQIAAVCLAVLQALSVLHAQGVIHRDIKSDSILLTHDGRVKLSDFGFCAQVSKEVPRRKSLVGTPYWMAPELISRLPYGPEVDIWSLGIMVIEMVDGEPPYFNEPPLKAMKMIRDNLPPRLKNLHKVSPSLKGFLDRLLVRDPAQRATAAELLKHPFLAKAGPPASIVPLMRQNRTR
T6 sequence (P07947 whole entry, species assumed): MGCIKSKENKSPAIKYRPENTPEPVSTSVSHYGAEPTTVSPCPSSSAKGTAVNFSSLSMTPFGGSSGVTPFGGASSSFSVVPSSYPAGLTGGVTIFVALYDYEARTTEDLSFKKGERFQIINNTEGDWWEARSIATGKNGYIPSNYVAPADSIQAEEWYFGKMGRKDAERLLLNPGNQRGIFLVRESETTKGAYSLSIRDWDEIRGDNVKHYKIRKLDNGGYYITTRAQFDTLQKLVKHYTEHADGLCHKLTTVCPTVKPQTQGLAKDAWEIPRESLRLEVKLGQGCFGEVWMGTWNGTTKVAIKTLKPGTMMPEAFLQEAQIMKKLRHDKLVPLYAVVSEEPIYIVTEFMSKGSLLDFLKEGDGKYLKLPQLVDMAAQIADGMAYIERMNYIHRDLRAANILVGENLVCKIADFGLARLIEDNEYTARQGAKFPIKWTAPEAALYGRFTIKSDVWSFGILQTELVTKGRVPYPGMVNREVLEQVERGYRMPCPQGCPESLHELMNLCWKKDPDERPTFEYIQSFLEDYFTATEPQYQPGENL
T29 sequence (Q15349 whole entry, species assumed): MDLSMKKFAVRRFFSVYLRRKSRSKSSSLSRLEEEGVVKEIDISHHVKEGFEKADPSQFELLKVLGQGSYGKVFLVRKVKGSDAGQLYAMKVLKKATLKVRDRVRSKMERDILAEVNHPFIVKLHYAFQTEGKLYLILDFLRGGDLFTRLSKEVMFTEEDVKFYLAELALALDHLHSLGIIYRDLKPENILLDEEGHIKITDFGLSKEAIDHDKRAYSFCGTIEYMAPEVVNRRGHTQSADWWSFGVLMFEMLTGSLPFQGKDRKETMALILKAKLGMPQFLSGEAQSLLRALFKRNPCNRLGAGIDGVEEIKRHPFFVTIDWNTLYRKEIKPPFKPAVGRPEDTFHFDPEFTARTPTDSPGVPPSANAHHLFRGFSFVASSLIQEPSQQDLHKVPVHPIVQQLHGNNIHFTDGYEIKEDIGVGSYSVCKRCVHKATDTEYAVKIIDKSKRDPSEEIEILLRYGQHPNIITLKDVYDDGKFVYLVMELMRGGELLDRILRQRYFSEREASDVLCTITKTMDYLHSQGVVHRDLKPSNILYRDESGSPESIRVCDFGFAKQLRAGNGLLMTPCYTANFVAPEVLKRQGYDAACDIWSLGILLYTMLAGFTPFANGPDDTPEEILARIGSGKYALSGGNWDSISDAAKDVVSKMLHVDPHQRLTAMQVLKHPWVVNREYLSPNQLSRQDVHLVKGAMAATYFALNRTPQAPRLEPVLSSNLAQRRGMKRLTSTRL
T15 sequence (Q9HCP0 whole entry): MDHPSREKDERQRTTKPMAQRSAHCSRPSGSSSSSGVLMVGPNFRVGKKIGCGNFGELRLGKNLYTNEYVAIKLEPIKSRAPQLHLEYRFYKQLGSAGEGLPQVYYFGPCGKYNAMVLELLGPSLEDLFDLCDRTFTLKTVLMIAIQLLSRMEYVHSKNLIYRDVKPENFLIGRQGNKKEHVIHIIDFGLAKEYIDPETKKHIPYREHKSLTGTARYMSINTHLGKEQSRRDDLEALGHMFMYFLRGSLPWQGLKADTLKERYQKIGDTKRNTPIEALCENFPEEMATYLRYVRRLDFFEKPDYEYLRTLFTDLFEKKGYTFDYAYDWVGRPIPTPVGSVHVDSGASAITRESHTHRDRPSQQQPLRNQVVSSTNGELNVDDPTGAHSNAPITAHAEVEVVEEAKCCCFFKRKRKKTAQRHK

Row | SMILES | inhibition at 10 µM (MINK) | inhibition at 10 µM (CAMK2B) | inhibition at 10 µM (CK1D) | inhibition at 10 µM (HCK) | inhibition at 10 µM (PRKCD) | inhibition at 10 µM (YES) | inhibition at 10 µM (MST1R) | inhibition at 10 µM (EPHB2) | inhibition at 10 µM (PRKCA) | inhibition at 10 µM (EPHA1) | inhibition at 10 µM (ERK1) | inhibition at 10 µM (HER4) | inhibition at 10 µM (EPHB1) | inhibition at 10 µM (LCK) | inhibition at 10 µM (CK1G1) | inhibition at 10 µM (PRKCZ) | inhibition at 10 µM (SRC) | inhibition at 10 µM (GSK3A) | inhibition at 10 µM (AMPKA2/B1/G1) | inhibition at 10 µM (EGFR) | further results
1 | CSc1sc(-c2cc[nH]n2)c2c1C(=O)CCC2 [Example 1, 3-(Methylsulfanyl)-1-(1H-pyrazol-3-yl)-6,7-dihydro-2-benzothiophen-4(5H)-one] | 24.8% | 6.3% | 44.6% | 12.5% | -14.8% | -4.4% | -1.3% | 2.6% | 2.6% | 2.8% | -2% | -2.4% | 3% | 4% | 6.6% | 0.4% | 7.3% | 8.5% | -2.7% | -3.1% | inhibition at 10 µM (LRRK2): 93.9%; inhibition at 10 µM (MAPKAPK2): 4.1%; inhibition at 10 µM (CASEIN K1G2): 6.9%; inhibition at 10 µM (DYRK1B): 40.2%; inhibition at 10 µM (PAK4): 6.1%; inhibition at 10 µM (PKD2): -2.5%; inhibition at 10 µM (TYRO3): 8.6%; inhibition at 10 µM (CDK1/CYCB1): 5.3%; inhibition at 10 µM (ABL1 Y253F): 2.5%; inhibition at 10 µM (RSK3): 9.4%; inhibition at 10 µM (SGK): -5.1%; inhibition at 10 µM (EPHB4): 0.6%; inhibition at 10 µM (PRKCH): 1.1%; inhibition at 10 µM (SYK): 49.9%; inhibition at 10 µM (MST2): 12.3%; inhibition at 10 µM (PAK2): 4.6%; inhibition at 10 µM (FGFR4): 5.9%
2 | CC1(C)CC(=O)c2c(SC3CCCC3)sc(-c3cc[nH]n3)c2C1 [Example 7, 3-(Cyclopentylsulfanyl)-6,6-dimethyl-1-(1H-pyrazol-3-yl)-6,7-dihydro-2-benzothiophen-4(5H)-one] | -1.5% | 6% | 12.9% | -1.1% | 12.6% | -11.1% | -7% | 2.3% | 4.3% | -0.2% | 1.9% | -2.2% | 3.3% | 23.3% | 10.9% | 0.5% | 1.5% | -8.3% | 4.5% | 2.2% | inhibition at 10 µM (LRRK2; LRRK2, tested at 10 uM): 83.1%; inhibition at 10 µM (MAPKAPK2): 2%; inhibition at 10 µM (CASEIN K1G2): 8.6%; inhibition at 10 µM (DYRK1B): 4.7%; inhibition at 10 µM (PAK4): -8.9%; inhibition at 10 µM (PKD2): -4.2%; inhibition at 10 µM (TYRO3): 10.5%; inhibition at 10 µM (CDK1/CYCB1): -6.7%; inhibition at 10 µM (ABL1 Y253F): 10.6%; inhibition at 10 µM (RSK3): 2%; inhibition at 10 µM (SGK): -1.3%; inhibition at 10 µM (EPHB4): 0.1%; inhibition at 10 µM (PRKCH): 0.8%; inhibition at 10 µM (SYK): 5.8%; inhibition at 10 µM (MST2): -2.3%; inhibition at 10 µM (PAK2): 2.4%; inhibition at 10 µM (FGFR4): -0.1%
